Assay results taken from patent publication US6737383B1, “Herbicidal oxadiazolidines” (priority 1999, dated 2004).

Legend:
bedstraw = assay: Test B pre/postemergence bedstraw; format: in vivo, Galium aparine; conditions: Postemergence, Rate 500 g/ha; scale of 0 to 10 where 0 is no effect and 10 is complete control
Procedure, shortened: (§1)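 Test chemicals in a non-phytotoxic solvent mixture with surfactant were sprayed preemergence onto planted seeds and postemergence onto plants 2 to 18 cm tall (1- to 4-leaf stage). After twelve to sixteen days in a greenhouse, injury was visually rated against untreated controls from 0 (no effect) to 10 (complete control).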

surinam grass = assay: Test B pre/postemergence surinam grass; format: in vivo, Brachiaria decumbens
Procedure, shortened: as §1

cocklebur = assay: Test B pre/postemergence cocklebur; format: in vivo, Xanthium strumarium
Procedure, shortened: as §1

corn = assay: Test B pre/postemergence corn; format: in vivo, Zea mays
Procedure, shortened: as §1

giant foxtail = assay: Test B pre/postemergence giant foxtail; format: in vivo, Setaria faberii
Procedure, shortened: as §1

pigweed = assay: Test B pre/postemergence pigweed; format: in vivo, Amaranthus retroflexus
Procedure, shortened: as §1

rape = assay: Test B pre/postemergence rape; format: in vivo, Brassica napus
Procedure, shortened: as §1

soybean = assay: Test B pre/postemergence soybean; format: in vivo, Glycine max
Procedure, shortened: as §1

sugar beet = assay: Test B pre/postemergence sugar beet; format: in vivo, Beta vulgaris
Procedure, shortened: as §1

velvetleaf = assay: Test B pre/postemergence velvetleaf; format: in vivo, Abutilon theophrasti
Procedure, shortened: as §1

wheat = assay: Test B pre/postemergence wheat; format: in vivo, Triticum aestivum
Procedure, shortened: as §1

wild oat = assay: Test B pre/postemergence wild oat; format: in vivo, Avena fatua
Procedure, shortened: as §1

purple nutsedge = assay: Test B pre/postemergence purple nutsedge; format: in vivo, Cyperus rotundus
Procedure, shortened: as §1

rice = assay: Test B flood test rice; format: in vivo, Oryza sativa; conditions: for Rice plant response rating: scale of 0 to 10 where 0 is no effect and 10 is complete control
Procedure, shortened: (§2)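 Plants were grown to the 2-leaf stage before treatment with test chemical, then held in a greenhouse for twelve to sixteen days. Injury was visually rated against untreated controls on a 0–10 scale, where 0 is no effect and 10 is complete control.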

smallflower flatsedge = assay: Test B flood test smallflower flatsedge; format: in vivo, Cyperus difformis; conditions: for S. Flatsedge plant response rating: scale of 0 to 10 where 0 is no effect and 10 is complete control
Procedure, shortened: as §2

duck salad = assay: Test B flood test duck salad; format: in vivo, Heteranthera limosa; conditions: for Plant response rating, Ducksalad: scale 0 to 10, 0 is no effect, 10 is complete control; for Ducksalad plant response rating: scale of 0 to 10 where 0 is no effect and 10 is complete control
Procedure, shortened: as §2

[1] = Postemergence, Rate 125 g/ha, scale 0 to 10, 0 is no effect, 10 is complete control
[2] = Postemergence, Rate 250 g/ha, scale 0 to 10, 0 is no effect, 10 is complete control
[3] = Postemergence, Rate 500 g/ha, scale of 0 to 10 where 0 is no effect and 10 is complete control
[4] = Preemergence, Rate 62 g/ha, scale 0 to 10 (0 no effect, 10 complete control)
[5] = Preemergence, Rate 125 g/ha, scale of 0 to 10 where 0 is no effect and 10 is complete control
[6] = Rate 62 g/ha, Postemergence, scale of 0 to 10 where 0 is no effect and 10 is complete control
[7] = Preemergence, Rate 250 g/ha, scale 0 to 10, 0 is no effect, 10 is complete control
[8] = Preemergence, Rate 500 g/ha, scale 0 to 10, 0 is no effect, 10 is complete control
[9] = Postemergence section (flood test species), Rate 500 g/ha
[10] = Rate 62 g/ha, Postemergence (flood test species)
[11] = flood test species, listed under Postemergence, Rate 250 g/ha, scale 0 to 10, 0 is no effect, 10 is complete control

SMILES: CC(C)N(C(=O)n1oc(=O)n(CCCC(F)(F)F)c1=O)c1ccc(F)cc1 [Compound 398]
- Bedstraw plant response rating (bedstraw): 9
- Plant response rating, B. signalgrass (surinam grass; [1]): 0
- Plant response rating, B. signalgrass (surinam grass; [2]): 2
- B. signalgrass plant response rating (surinam grass; [3]): 8
- Plant response rating, B. signalgrass (surinam grass; [4]): 0
- Plant response rating, B. signalgrass (surinam grass; [5]): 2
- B. signalgrass plant response rating (surinam grass; Preemergence, Rate 250 g/ha, scale of 0 to 10 where 0 is no effect and 10 is complete control): 6
- B. signalgrass plant response rating (surinam grass; Preemergence, Rate 500 g/ha, scale of 0 to 10 where 0 is no effect and 10 is complete control): 10
- B. signalgrass plant response rating (surinam grass; [6]): 0
- Plant response rating, Cocklebur (cocklebur; [1]): 0
- Plant response rating, Cocklebur (cocklebur; [2]): 0
- Cocklebur plant response rating (cocklebur; [3]): 0
- Plant response rating, Cocklebur (cocklebur; [4]): 0
- Plant response rating, Cocklebur (cocklebur; [5]): 0
- Cocklebur plant response rating (cocklebur; [7]): 0
- Cocklebur plant response rating (cocklebur; [8]): 0
- Cocklebur plant response rating (cocklebur; [6]): 0
- Plant response rating, Corn (corn; [1]): 0
- Plant response rating, Corn (corn; [2]): 0
- Corn plant response rating (corn; [3]): 0
- Plant response rating, Corn (corn; [4]): 0
- Plant response rating, Corn (corn; [5]): 0
- Corn plant response rating (corn; [7]): 0
- Corn plant response rating (corn; [8]): 8
- Corn plant response rating (corn; [6]): 0
- Plant response rating, Giant foxtail (giant foxtail; [1]): 8
- Plant response rating, Giant foxtail (giant foxtail; [2]): 9
- Giant foxtail plant response rating (giant foxtail; [3]): 9
- Plant response rating, Giant foxtail (giant foxtail; [4]): 10
- Plant response rating, Giant foxtail (giant foxtail; [5]): 10
- Giant foxtail plant response rating (giant foxtail; [7]): 10
- Giant foxtail plant response rating (giant foxtail; [8]): 10
- Giant foxtail plant response rating (giant foxtail; [6]): 3
- Plant response rating, Redroot pigweed (pigweed; [2]): 3
- Redroot pigweed plant response rating (pigweed; [3]): 5
- Plant response rating, Redroot pigweed (pigweed; [4]): 2
- Plant response rating, Redroot pigweed (pigweed; [5]): 5
- Redroot pigweed plant response rating (pigweed; [7]): 10
- Redroot pigweed plant response rating (pigweed; [8]): 10
- Redroot pigweed plant response rating (pigweed; [6]): 0
- Plant response rating, Rape (rape; [2]): 2
- Rape plant response rating (rape; [3]): 2
- Plant response rating, Rape (rape; [4]): 0
- Plant response rating, Rape (rape; [5]): 3
- Rape plant response rating (rape; [7]): 8
- Rape plant response rating (rape; [8]): 10
- Rape plant response rating (rape; [6]): 0
- Plant response rating, Soybean (soybean; [2]): 4
- Soybean plant response rating (soybean; [3]): 6
- Plant response rating, Soybean (soybean; [4]): 0
- Plant response rating, Soybean (soybean; [5]): 0
- Soybean plant response rating (soybean; [7]): 0
- Soybean plant response rating (soybean; [8]): 0
- Soybean plant response rating (soybean; [6]): 3
- Plant response rating, Sugarbeets (sugar beet; [2]): 0
- Sugarbeets plant response rating (sugar beet; [3]): 0
- Plant response rating, Sugarbeets (sugar beet; [4]): 0
- Plant response rating, Sugarbeets (sugar beet; [5]): 4
- Sugarbeets plant response rating (sugar beet; [7]): 4
- Sugarbeets plant response rating (sugar beet; [8]): 9
- Sugarbeets plant response rating (sugar beet; [6]): 0
- Plant response rating, Velvetleaf (velvetleaf; [2]): 0
- Velvetleaf plant response rating (velvetleaf; [3]): 5
- Plant response rating, Velvetleaf (velvetleaf; [4]): 0
- Plant response rating, Velvetleaf (velvetleaf; [5]): 2
- Velvetleaf plant response rating (velvetleaf; [7]): 6
- Velvetleaf plant response rating (velvetleaf; [8]): 7
- Velvetleaf plant response rating (velvetleaf; [6]): 0
- Wheat plant response rating (wheat; [3]): 3
- Plant response rating, Wheat (wheat; [4]): 0
- Plant response rating, Wheat (wheat; [5]): 0
- Wheat plant response rating (wheat; [7]): 0
- Wheat plant response rating (wheat; [8]): 2
- Wheat plant response rating (wheat; [6]): 0
- Wild oats plant response rating (wild oat; [3]): 0
- Plant response rating, Wild oats (wild oat; [4]): 0
- Plant response rating, Wild oats (wild oat; [5]): 3
- Wild oats plant response rating (wild oat; [7]): 3
- Wild oats plant response rating (wild oat; [8]): 8
- Wild oats plant response rating (wild oat; [6]): 0
- Plant response rating, Nutsedge (purple nutsedge; [2]): 0
- Nutsedge plant response rating (purple nutsedge; [3]): 0
- Plant response rating, Nutsedge (purple nutsedge; [4]): 0
- Plant response rating, Nutsedge (purple nutsedge; [5]): 0
- Nutsedge plant response rating (purple nutsedge; [7]): 0
- Nutsedge plant response rating (purple nutsedge; [8]): 0
- Nutsedge plant response rating (purple nutsedge; [6]): 0
- Rice plant response rating (rice; [9]): 0
- Rice plant response rating (rice; [10]): 0
- Plant response rating, Rice (rice; [11]): 0
- S. Flatsedge plant response rating (smallflower flatsedge; [9]): 0
- S. Flatsedge plant response rating (smallflower flatsedge; [10]): 0
- Plant response rating, S. Flatsedge (smallflower flatsedge; [11]): 0
- Plant response rating, Ducksalad (duck salad; Postemergence (flood test), Rate 125 g/ha): 0
- Ducksalad plant response rating (duck salad; [9]): 0
- Ducksalad plant response rating (duck salad; [10]): 0
- Plant response rating, Ducksalad (duck salad; flood test species, listed under Postemergence, Rate 250 g/ha): 0
